These results are taken from paper PMC4999912, “Anti-Dengue Virus Constituents from Formosan Zoanthid Palythoa mutuki” (Marine Drugs, 2016).

In series [1] the test system is DENV-2. Put plainly: Anti-DENV activity assay, DENV RNA level by qRT-PCR in infected Huh-7 cells. The series is classed as cell-based, dengue virus 2. Particulars: for EC50: DENV2, Huh-7 cells, MOI 0.2, treatment 2 h post infection, RNA at 72 h, read-out: EC50, half maximal effective concentration, anti-DENV-2 activity. On the procedure: (§1) Huh-7 cells were cultured in Dulbecco’s modified Eagle’s medium (DMEM) containing 10% fetal bovine serum, 1% non-essential amino acids, and 1% antibiotic-antimycotic in a 5% CO2 at 37 °C. Huh-7 cells were seeded at 24-well plate at density 5 × 10^4 cells/well and infected by DENV infection at a multiplicity of infection (MOI) of 0.2 followed by test compounds treatment 2 h post infection. Total cellular RNA were harvested at 72 h post-infection, and DENV RNA level was analyzed using quantitative real-time reverse-transcription polymerase chain reaction (qRT-PCR) with specific primers against DENV NS5 gene. DENV RNA level was normalized by cellular glyceraldehydes-3-phosphate dehydrogenase (gapdh) mRNA level. 2′-C-methylcytidine (2′CMC) served as positive control. DENV of different serotypes (DENV-1: DN8700828; DENV-2: DN454009A; DENV-3: DN8700829A; DENV-4: S9201818) were obtained from the Centers for Disease Control, Department of Health, Taipei, Taiwan.
A general note: In qPCR the cycle at which signal appears reflects the starting amount.

The subject of series [2] is DENV-1. The description is as above. In kind it is cell-based. The conditions noted are these: Dengue virus, DENV1, MOI 0.2, 72 h. On the procedure: as §1
The subject of series [3] is DENV-3. The description is as above. The series is classed as cell-based. Particulars: Dengue virus, DENV3, MOI 0.2, 72 h. On the procedure:
as §1

Series [4] deals with DENV-4. The description is as above. In kind it is cell-based. The conditions noted are these: Dengue virus, DENV4, MOI 0.2, 72 h. As to the method:
as §1

Series [5] can be described thus: Cytotoxicity assay (MTS). The series is classed as cell-based. The conditions noted are these: human, Huh-7 cells, read-out: CC50, half maximal cytotoxicity concentration. On the procedure: Huh-7 cells were seeded onto 96-well plate at a density of 5 × 10^3 cells per well, followed by compound treatment for 72 h. The cell viability was determined using a standard MTS assay (CellTiter 96® Aqueous One Solution Cell Proliferation assay system, Promega, Madison, WI, USA) according to the manufacturer’s instructions.

Series [6] has as its system DENV. The series is classed as cell-based, dengue virus. Particulars: 10 μM, TCID50 assay.
The target in series [7] is DENV NS2B/NS3 protease (Dengue virus type 2, UniProt P29990). In words: cell-based. From the text: The DENV RdRp activity reporter system was used to determine the anti-DENV RdRp activity as described before. The NS3 protease reporter-based assay was used to determine the anti-DENV protease activity. The Huh-7 cells were transfected with DENV NS2B/NS3 protease reporter vector pEG(∆4B/5)NLuc carrying a specific DENV protease cleavage peptide sequences and the DENV protease expression vector. […] The supernatant was collected to analyze the nano luciferase (NLuc) activity by Nano-Glo® Luciferase Assay System following the manufacturer’s instructions (Promega, Madison, WI, USA).
Chain of DENV NS2B/NS3 protease (P29990 1476-2093): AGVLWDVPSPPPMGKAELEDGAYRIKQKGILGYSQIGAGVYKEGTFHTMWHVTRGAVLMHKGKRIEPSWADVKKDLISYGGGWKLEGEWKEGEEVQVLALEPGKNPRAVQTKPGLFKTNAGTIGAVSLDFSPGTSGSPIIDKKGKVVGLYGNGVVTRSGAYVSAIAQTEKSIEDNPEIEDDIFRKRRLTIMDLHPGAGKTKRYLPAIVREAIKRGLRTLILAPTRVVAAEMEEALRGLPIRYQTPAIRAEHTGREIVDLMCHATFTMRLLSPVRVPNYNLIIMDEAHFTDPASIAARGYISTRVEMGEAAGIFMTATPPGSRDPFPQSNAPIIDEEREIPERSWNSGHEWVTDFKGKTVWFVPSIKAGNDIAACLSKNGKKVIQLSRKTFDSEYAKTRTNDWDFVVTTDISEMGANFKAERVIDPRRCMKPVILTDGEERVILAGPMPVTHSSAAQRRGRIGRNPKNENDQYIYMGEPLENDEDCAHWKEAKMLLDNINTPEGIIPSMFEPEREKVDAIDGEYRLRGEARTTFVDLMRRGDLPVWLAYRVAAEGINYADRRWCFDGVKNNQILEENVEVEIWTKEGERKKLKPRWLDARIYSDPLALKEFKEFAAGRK
Chain of DENV NS2B/NS3 protease (P29990 1346-1475): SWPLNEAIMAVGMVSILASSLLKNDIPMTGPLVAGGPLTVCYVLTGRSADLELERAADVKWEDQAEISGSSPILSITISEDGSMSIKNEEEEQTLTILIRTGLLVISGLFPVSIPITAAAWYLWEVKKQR

The test system of series [8] is DENV. Set-up: method as in PMID 22201648. Particulars: cited from earlier work.

SMILES strings stand for the structures. ≈ marks a conversion by molar mass, not a printed value. Where only a bound is given, the exact number is not on record here.

Regarding `CC(=O)OC1CC(C)(C)C(=C=CC(C)=CC=CC=CC=C(C)C=C2C=C(C=CC34OC3(C)CC(O)CC4(C)C)C(=O)O2)C(C)(O)C1` (centres unmarked) [Compound 9, peridinin], the IC50 (in general, the concentration at which inhibition is half-maximal) in series [1] (Dengue virus, DENV2, Huh-7, read-out: IC50, antiviral activity (abstract)) stood at 4.5 ± 0.46 µg/mL (≈ 7.13 µM). Besides, the EC50 stood at 4.5 ± 0.46 µM in series [1] (Dengue virus); 7.62 ± 0.17 µM in series [2]; 5.84 ± 0.19 µM in series [3]; 6.51 ± 0.3 µM in series [4]; 8.5 ± 0.41 µM in series [7]. Further, the CC50 at 72 h in series [5] is 133 ± 3.21 µM. Besides, in series [6], the “decrease of the viral titer as compared to mock-treatment” value worked out at 2 ± 0.6 log10.
Regarding `CC(=O)O[C@H]1C[C@@]2(C)[C@@H](C[C@H]1O)C(=O)C=C1[C@@H]2CC[C@]2(C)[C@@H]([C@@](C)(O)[C@H](O)CCC(C)(C)O)CC[C@@]12O` [Compound 2, 20-hydroxyecdysone 2-acetate], the EC50 in series [1] (Dengue virus) is greater than 100 µM. Also, the CC50 at 72 h in series [5] is greater than 200 µM.
Take `CC(C)(O)CCC(O)C(C)(O)C1CCC2(O)C3=CC(=O)C4C(O)CCCC4(C)C3CCC12C` (centres unmarked) [Compound 1, palythone A]: the “anti-DENV-2 activity in words” value in series [1] was “weak anti-DENV-2 activities”. In series [1] (Dengue virus), the EC50 was 54 ± 2.17 µM.
On the same counts, the results for `C[C@@H](C[C@@H](O)[C@](C)(O)[C@H]1CC[C@@]2(O)C3=CC(=O)[C@@H]4C[C@@H](O)[C@@H](O)C[C@]4(C)[C@H]3CC[C@]12C)C(C)(C)O` [Compound 4, 24-epi-makisterone A] are “weak anti-DENV-2 activities” and 46.5 ± 0.59 µM.
Regarding `O=c1c(O)c(-c2ccc(O)c(O)c2)oc2cc(O)cc(O)c12` [quercetin], in series [8], the “IC50, anti-DENV activity” value is 35.7 µg/mL (≈ 118 µM).
In the case of `C[C@@]1(O)[C@H](O)[C@@H](CO)O[C@H]1n1ccc(N)nc1=O` [2′CMC, 2′-C-methylcytidine, reference compound], the “SI, selectivity index, CC50/EC50” value in series [1] (CC50 (Huh-7) / EC50 (DENV-2)) is reported as greater than 7.2. Further, the EC50 in series [1] (Dengue virus) is 13.23 ± 0.07 µM. In addition, in series [5], the CC50 at 72 h turned out to be 94.8 ± 4.15 µM.
Turning to `CC(C)(O)CC[C@@H](O)[C@](C)(O)[C@H]1CC[C@@]2(O)C3=CC(=O)[C@@H]4CC[C@@H](O)C[C@]4(C)[C@H]3CC[C@]12C` [Compound 3, 3-deoxy-20-hydroxyecdysone], the EC50 in series [1] (Dengue virus) is greater than 100 µM. Further, the CC50 at 72 h in series [5] is greater than 200 µM.
